From PubChem BioAssay (NCI)
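1) Cells in 96-well plates. 2) Compound, 48 h, 5 concentrations. 3) Linear interpolation between surrounding doses. 4) Unreached endpoint = highest concentration. GI50: concentration for 50% inhibition of growth. TGI: concentration producing complete growth inhibition.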

Columns and labels:
Assay in all cases: DTP human tumour cell line panel, 48 h
[1] = tested on: 786-0 renal
[2] = tested on: A498 renal
[3] = tested on: A549 NSCLC
[4] = tested on: ACHN renal
[5] = tested on: BT-549 breast
[6] = tested on: CAKI-1 renal
[7] = tested on: COLO 205 colon
[8] = tested on: DU-145 prostate
[9] = tested on: EKVX NSCLC
[10] = tested on: HCC-2998 colon
[11] = tested on: HCT-116 colon
[12] = tested on: HCT-15 colon
[13] = tested on: HL-60(TB) leukemia
[14] = tested on: HOP-62 NSCLC
[15] = tested on: HOP-92 NSCLC
[16] = tested on: HS 578T breast
[17] = tested on: HT29 colon
[18] = tested on: IGROV1 ovarian
[19] = tested on: K-562 leukemia
[20] = tested on: KM12 colon
[21] = tested on: LOX IMVI melanoma
[22] = tested on: M14 melanoma
[23] = tested on: MALME-3M melanoma
[24] = tested on: MCF7 breast
[25] = tested on: MDA-MB-231 breast
[26] = tested on: MDA-MB-435
[27] = tested on: MOLT-4 leukemia
[28] = tested on: NCI-H226 lung
[29] = tested on: NCI-H460 lung
[30] = tested on: NCI-H522 lung
[31] = tested on: NCI/ADR-RES ovarian
[32] = tested on: OVCAR-3 ovarian
[33] = tested on: OVCAR-4 ovarian
[34] = tested on: OVCAR-5 ovarian
[35] = tested on: OVCAR-8 ovarian
[36] = tested on: PC-3 prostate
[37] = tested on: RPMI-8226 leukemia
[38] = tested on: RXF 393 renal
[39] = tested on: SF-268 CNS
[40] = tested on: SF-295 CNS
[41] = tested on: SF-539 CNS
[42] = tested on: SK-MEL-2 melanoma
[43] = tested on: SK-MEL-28 melanoma
[44] = tested on: SK-MEL-5 melanoma
[45] = tested on: SK-OV-3 ovarian
[46] = tested on: SN12C renal
[47] = tested on: SNB-19 CNS
[48] = tested on: SNB-75 CNS
[49] = tested on: SR leukemia
[50] = tested on: SW-620 colon
[51] = tested on: T-47D breast
[52] = tested on: TK-10 renal
[53] = tested on: U251 CNS
[54] = tested on: UACC-257 melanoma
[55] = tested on: UACC-62 melanoma
[56] = tested on: UO-31 renal

N/C(=N\c1nc2c(Br)cccc2s1)C(Br)Br
GI50 [1]: 13.1 µM | TGI [1]: 35.2 µM | GI50 [2]: 21.5 µM | TGI [2]: 50.6 µM | GI50 [3]: 7.76 µM | TGI [3]: 21.9 µM | GI50 [4]: 2.98 µM | TGI [4]: 11.8 µM | GI50 [5]: 11.2 µM | TGI [5]: 29.9 µM | GI50 [6]: 2.1 µM | TGI [6]: 8.98 µM | GI50 [7]: 3.49 µM | TGI [7]: 13.9 µM | GI50 [8]: 3.84 µM | TGI [8]: 16 µM | GI50 [9]: 11.4 µM | TGI [9]: 28 µM | GI50 [10]: 3.62 µM | TGI [10]: 14.3 µM | GI50 [11]: 2.27 µM | TGI [11]: 16.8 µM | GI50 [12]: 2.57 µM | TGI [12]: 11.5 µM | GI50 [13]: 7.38 µM | TGI [13]: 57.5 µM | GI50 [14]: 10.5 µM | TGI [14]: 27.8 µM | GI50 [15]: 6.07 µM | TGI [15]: 29.4 µM | GI50 [16]: 7.24 µM | TGI [16]: > 100 µM | GI50 [17]: 2.91 µM | TGI [17]: 12.8 µM | GI50 [18]: 10.4 µM | TGI [18]: 31.6 µM | GI50 [19]: 2.66 µM | TGI [19]: 52.7 µM | GI50 [20]: 4.29 µM | TGI [20]: 22.4 µM | GI50 [21]: 0.307 µM | TGI [21]: 1.29 µM | GI50 [22]: 10.4 µM | TGI [22]: 28.1 µM | GI50 [23]: 8.53 µM | TGI [23]: 24.4 µM | GI50 [24]: 2.25 µM | TGI [24]: 11.3 µM | GI50 [25]: 5.51 µM | TGI [25]: 28 µM | GI50 [26]: 3.22 µM | TGI [26]: 13.7 µM | GI50 [27]: 3.9 µM | TGI [27]: 27.3 µM | GI50 [28]: 11.3 µM | TGI [28]: 38.6 µM | GI50 [29]: 2.55 µM | TGI [29]: 11.5 µM | GI50 [30]: 6.16 µM | TGI [30]: 21.7 µM | GI50 [31]: 2.58 µM | TGI [31]: 9.81 µM | GI50 [32]: 4.19 µM | TGI [32]: 16.6 µM | GI50 [33]: 6.21 µM | TGI [33]: 30.6 µM | GI50 [34]: 12 µM | TGI [34]: 25.8 µM | GI50 [35]: 8.18 µM | TGI [35]: 24.1 µM | GI50 [36]: 8.68 µM | TGI [36]: 26.1 µM | GI50 [37]: 2.97 µM | TGI [37]: 16.4 µM | GI50 [38]: 2.74 µM | TGI [38]: 9.95 µM | GI50 [39]: 4.67 µM | TGI [39]: 26.9 µM | GI50 [40]: 10.6 µM | TGI [40]: 25.9 µM | GI50 [41]: 3.7 µM | TGI [41]: 15 µM | GI50 [42]: 15.4 µM | TGI [42]: 34.7 µM | GI50 [43]: 11.1 µM | TGI [43]: 23.3 µM | GI50 [44]: 17.5 µM | TGI [44]: 32 µM | GI50 [45]: 10.8 µM | TGI [45]: 35.4 µM | GI50 [46]: 11.7 µM | TGI [46]: 29.8 µM | GI50 [47]: 10.4 µM | TGI [47]: 27.8 µM | GI50 [48]: 10.2 µM | TGI [48]: 22.1 µM | GI50 [49]: 4.68 µM | TGI [49]: 31 µM | GI50 [50]: 2.26 µM | TGI [50]: 11.2 µM | GI50 [51]: 10.3 µM | TGI [51]: 36.1 µM | GI50 [52]: 15.9 µM | TGI [52]: 32.2 µM | GI50 [53]: 2.83 µM | TGI [53]: 12.1 µM | GI50 [54]: 13.5 µM | TGI [54]: 28 µM | GI50 [55]: 6.63 µM | TGI [55]: 24.3 µM | GI50 [56]: 5.69 µM | TGI [56]: 20.2 µM
